Structures can show the parent of a compound that is named as a salt. Where two headings read alike, the source gives them in different places.

What all share (format): in vivo
Assay [1] concerns Sphaerotheca fuliginea. Nature of the assay: Sphaerotheca test (cucumbers)/protective. Conditions: 7 days after inoculation. The procedure:
Sphaerotheca Test (Cucumbers)/Protective
(§1) Solvent: • 24,5 parts by weight of acetone • 24,5 parts by weight of dimethylacetamide
(§2) Emulsifier: • 1 part by weight of alkylaryl polyglycol ether
(§3) To produce a suitable preparation of active compound, 1 part by weight of active compound is mixed with the stated amounts of solvent and emulsifier, and the concentrate is diluted with water to the desired concentration.
To test for protect activity, young plants are sprayed with the preparation of active compound at the stated rate of application. After the spray coating has dried on, the plants are inoculated with to an aqueous spore suspension of Sphaerotheca fuliginea. The plants are then placed in a greenhouse at approximately 23° C. and a relative atmospheric humidity of approximately 70%.
The test is evaluated 7 days after the inoculation. 0% means an efficacy which corresponds to that of the control, while an efficacy of 100% means that no disease is observed.

Assay [2] has as its system Phytophthora infestans. The experiment in a line: whole plant or invertebrate. Conditions: tomatoes, 3 days after inoculation; for pest or weed control at 12.5 ppm: read-out: Efficacy in % found, Table 2.
Assay [3] relates to Botrytis cinerea. Nature of the assay: Botrytis test (beans)/protective. Conditions: 48 h, 2 days after inoculation, read-out: Efficacy in % found; for pest or weed control at 5 ppm: Table 9, 5 ppm a.i.; for pest or weed control at 10 ppm: Table 9, 10 ppm a.i. The procedure: Botrytis Test (Beans)/Protective
as §1, §2, §3
To test for protective activity, young plants are sprayed with the preparation of active compound. After the spray coating has dried on, 2 small pieces of agar covered with growth of Botrytis cinerea are placed on each leaf. The inoculated plants are placed in a darkened chamber at 20° C. and a relative atmospheric humidity of 100%.
2 days after the inoculation, the size of the lesions on the leaves is evaluated. 0% means an efficacy which corresponds to that of the control, while an efficacy of 100% means that no disease is observed.

Assay [4] deals with Pythium ultimum. The experiment in a line: Pythium test (cotton)/seed treatment. Conditions: emerged seedlings after 7 days. The protocol: Pythium Test (Cotton)/Seed Treatment
The test is performed under greenhouse conditions.
Cotton seeds, treated with the active compound or compound combinations, solved in N-methyl-2-pyrrolidon and diluted with water to the desired dosages, were sown in 6*6 cm pots containing 4 cm of a 1:1 mix of steamed field soil and sand.
Perlite was incubated with mycelium fragments of Pythium ultimum. 1 ml of infected perlite was scattered between the treated cotton seeds. Seeds were then covered by light expanded clay aggregate. Pots were incubated in the greenhouse 7 days at 20° C. and 80% relative humidity.
Assessment consisted of counting of emerged seedlings. 0% means an efficacy which to corresponds to that of the control, while an efficacy of 100% means that all seedlings have emerged.

The mark [5] stands for this setting: Podosphaera fuliginea, 168 h, Table 7, 1 ppm a.i., read-out: Efficacy in % found.
Where [6] appears, read: Phytophthora infestans, 72 h, read-out: Efficacy in % found, Table 1, 0.4 ppm a.i.
Where [7] appears, read: Phytophthora infestans, 72 h, read-out: Efficacy in % found, Table 1, 40 ppm a.i.
[8] abbreviates: Phytophthora infestans, 72 h, 12.5 ppm a.i.

Take `Fc1ccc([C@]2(Cn3cncn3)O[C@H]2c2ccccc2Cl)cc1` (racemic) [epoxiconazole]: in assay [1] (setting [5]), the pest or weed control at 1 ppm was 63%. As to `C[C@@]1(c2ccc(Oc3ccccc3)cc2)OC(=O)N(Nc2ccccc2)C1=O` (racemic) [famoxadone], the pest or weed control at 0.4 ppm in assay [2] (setting [6]) turned out to be 23%. For the compound `Cn1cc(C(=O)Nc2ccccc2-c2cc(F)c(F)c(F)c2)c(C(F)F)n1` [3-(difluoromethyl)-1-methyl-N-(3′,4′,5′-trifluorobiphenyl-2-yl)-1H-pyrazole-4-carboxamide], the pest or weed control at 100 ppm in assay [2] (Phytophthora infestans, 72 h, read-out: Efficacy in % found, Table 3, 100 ppm a.i.) amounted to 35%. Also, the pest or weed control at 5 ppm in assay [3] is 65%. On to `Cc1cc(C(F)(F)F)nn1CC(=O)N1CCC(c2nc(C(=O)N(C)[C@@H]3CCCc4ccccc43)cs2)CC1` [N-methyl-2-(1-{[5-methyl-3-(trifluoromethyl)-1H-pyrazol-1-yl]acetyl}piperidin-4-yl)-N-[(1R)-1,2,3,4-tetrahydronaphthalen-1-yl]-1,3-thiazole-4-carboxamide], for which, in assay [2] (Phytophthora infestans, 72 h, read-out: Efficacy in % found, Table 1, 0.1 ppm a.i.), the pest or weed control at 0.1 ppm came out at 48%.

Take `CCCCCCCCc1c(CC)nc2ncnn2c1N` [ametoctradin]: the “Efficacy in % found” value in assay [2] (Table 1, 1 ppm a.i.) was found to be 22%.

With `CO/C=C(/C(=O)OC)c1ccccc1Oc1cc(Oc2ccccc2C#N)ncn1` [azoxystrobin], the “Efficacy in % found” value in assay [2] (Table 1, 0.4 ppm a.i.) was found to be 30%; in assay [1] (Table 8, 1 ppm a.i.), 30%. For `COC(=O)[C@@H](C)N(C(=O)Cc1ccccc1)c1c(C)cccc1C` [benalaxyl-M], the “Efficacy in % found” value is recorded as 4% in assay [4] (Table 11, 1 g a.i./dt) and 28% in assay [2] (Table 5, 1 ppm a.i.). Take `CC(C)[C@H](NC(=O)O)C(=O)N[C@H](C)c1nc2ccc(F)cc2s1` [benthiavalicarb]: in assay [2] (Table 1, 0.1 ppm a.i.), the “Efficacy in % found” value was determined as 48%. For `Cn1cc(C(=O)Nc2ccc(F)cc2-c2ccc(Cl)c(Cl)c2)c(C(F)F)n1` [bixafen, N-(3′,4′-dichloro-5-fluorobiphenyl-2-yl)-3-(difluoromethyl)-1-methyl-1H-pyrazole-4-carboxamide], the pest or weed control at 40 ppm in assay [2] (setting [7]) was 18%. The pest or weed control at 1 ppm in assay [1] (Podosphaera fuliginea, 168 h, Table 8, 1 ppm a.i., read-out: Efficacy in % found) turned out to be 0%. With `O=C(Nc1ccccc1-c1ccc(Cl)cc1)c1cccnc1Cl` [boscalid], the pest or weed control at 40 ppm in assay [2] (setting [7]) was found to be 26%. In addition, the pest or weed control at 10 ppm in assay [3] amounted to 73%. For `N#Cc1c(Cl)c(Cl)c(Cl)c(C#N)c1Cl` [chlorothalonil], in assay [2] (setting [8]), the pest or weed control at 12.5 ppm amounted to 20%.

Take `[Cu+2].[OH-].[OH-]` [copper hydroxide]: the “Efficacy in % found” value in assay [2] (Table 2, 6.25 ppm a.i.) is 73%.

With `[Cl-].[Cu+2].[Cu+2].[OH-].[OH-].[OH-]` [copper oxychloride], the “Efficacy in % found” value in assay [2] (Table 2, 6.25 ppm a.i.) is listed as 60%. `Cc1ccc(-c2c(Cl)nc(C#N)n2S(=O)(=O)N(C)C)cc1` [cyazofamid]: the pest or weed control at 0.4 ppm in assay [2] (setting [6]) was 49%.

For the compound `CCNC(=O)NC(=O)/C(C#N)=N/OC` [cymoxanil], the pest or weed control at 1.25 ppm in assay [2] (Phytophthora infestans, 72 h, read-out: Efficacy in % found, Table 6, 1.25 ppm a.i.) amounted to 29%. For `COc1ccc(C(=CC(=O)N2CCOCC2)c2ccc(Cl)cc2)cc1OC` [dimethomorph], the pest or weed control at 0.4 ppm in assay [2] (setting [6]) is 41%. Turning to `CSC1=N[C@@](C)(c2ccccc2)C(=O)N1Nc1ccccc1` [fenamidone], the “Efficacy in % found” value in assay [4] (Table 11, 1 g a.i./dt) was 4%. The pest or weed control at 0.4 ppm in assay [2] (setting [6]) was 57%.

As to `CC1(C(=O)Nc2ccc(O)c(Cl)c2Cl)CCCCC1` [fenhexamid], in assay [3], the pest or weed control at 5 ppm came to 81%. Take `O=[N+]([O-])c1cc(C(F)(F)F)c(Cl)c([N+](=O)[O-])c1Nc1ncc(C(F)(F)F)cc1Cl` [fluazinam]: the pest or weed control at 2 ppm in assay [2] (Phytophthora infestans, 72 h, read-out: Efficacy in % found, Table 1, 2 ppm a.i.) stood at 38%. Take `O=C(NCc1ncc(C(F)(F)F)cc1Cl)c1c(Cl)cccc1Cl` [fluopicolide]: the “Efficacy in % found” value in assay [4] (Table 11, 10 g a.i./dt) worked out at 26%; in assay [2] (Table 1, 0.4 ppm a.i.) it was 18%. For the compound `O=C(NCCc1ncc(C(F)(F)F)cc1Cl)c1ccccc1C(F)(F)F` [fluopyram, N-{2-[3-chloro-5-(trifluoromethyl)pyridin-2-yl]ethyl}-2-(trifluoromethyl)benzamide], the pest or weed control at 25 ppm in assay [2] (Phytophthora infestans, 72 h, read-out: Efficacy in % found, Table 3, 25 ppm a.i.) worked out at 9%. Moreover, the pest or weed control at 10 ppm in assay [3] stood at 70%. On to `CO/N=C(/C1=NOCCO1)c1ccccc1Oc1ncnc(Oc2ccccc2Cl)c1F` [fluoxastrobin], for which the pest or weed control at 0.4 ppm in assay [2] (setting [6]) was determined as 36%. With `O=c1c2cc(F)ccc2nc(-n2cncn2)n1-c1ccc(Cl)cc1Cl` [fluquinconazole], the pest or weed control at 0.5 ppm in assay [1] (Podosphaera fuliginea, 168 h, Table 7, 0.5 ppm a.i., read-out: Efficacy in % found) was 63%. In the case of `O=C1c2ccccc2C(=O)N1SC(Cl)(Cl)Cl` [folpet], in assay [3] (Table 10, 50 ppm a.i.), the pest or weed control at 50 ppm amounted to 79%. Consider `CCO[PH](=O)O` [fosetyl-Al], for which, in assay [2] (Table 2, 12.5 ppm a.i.), the “Efficacy in % found” value is 0%. `CC(C)NC(=O)N1CC(=O)N(c2cc(Cl)cc(Cl)c2)C1=O` [iprodione]: the pest or weed control at 50 ppm in assay [3] (Table 9, 50 ppm a.i.) came to 70%. For `Cc1ccc(C(C)NC(=O)[C@@H](NC(=O)OC(C)C)C(C)C)cc1` (stereo partly drawn) [iprovalicarb], the “Efficacy in % found” value in assay [2] (Table 1, 0.4 ppm a.i.) is on record as 0%. In the case of `CC(C)C1C2CCC1c1c(NC(=O)c3cn(C)nc3C(F)F)cccc12` (stereo not drawn) [isopyrazam], in assay [2] (Table 1, 40 ppm a.i.), the “Efficacy in % found” value is 20%. With `COCC(=O)N(c1c(C)cccc1C)[C@H](C)C(=O)OC` [mefenoxam], the “Efficacy in % found” value in assay [4] (Table 11, 0.1 g a.i./dt) is given as 48%. Consider `Cc1nn(C)c(F)c1C(=O)Nc1ccccc1C(C)CC(C)C` (stereo not drawn) [penflufen], for which, in assay [2] (Table 1, 40 ppm a.i.), the “Efficacy in % found” value worked out at 16%. On to `CC(C)CC(C)c1sccc1NC(=O)c1cn(C)nc1C(F)(F)F` (stereo not drawn) [penthiopyrad], for which the pest or weed control at 40 ppm in assay [2] (setting [7]) came to 31%.

Take `OP(O)O` [phosphorous acid]: the “Efficacy in % found” value in assay [2] (Table 2, 12.5 ppm a.i.) is given as 0%. As to `CCCN(CCOc1c(Cl)cc(Cl)cc1Cl)C(=O)n1ccnc1` [prochloraz], the pest or weed control at 100 ppm in assay [2] (Phytophthora infestans, 72 h, read-out: Efficacy in % found, Table 4, 100 ppm a.i.) was 26%.

`CCCOC(=O)NCCCN(C)C` [propamocarb-HCl]: the pest or weed control at 12.5 ppm in assay [2] (setting [8]) was 20%. Take `CCCC1COC(Cn2cncn2)(c2ccc(Cl)cc2Cl)O1` (stereo not drawn) [propiconazole]: in assay [1] (setting [5]), the pest or weed control at 1 ppm is 13%. Still for that read-out and setting: the same measure for `OC(Cc1ccccc1Cl)(Cn1nc[nH]c1=S)C1(Cl)CC1` (stereo not drawn) [prothioconazole]: 50%. For `COC(=O)N(OC)c1ccccc1COc1ccn(-c2ccc(Cl)cc2)n1` [pyraclostrobin], the pest or weed control at 0.4 ppm in assay [2] (setting [6]) is 28%.

In the case of `Cc1cc(C)nc(Nc2ccccc2)n1` [pyrimethanil], the pest or weed control at 25 ppm in assay [3] (Table 9, 25 ppm a.i.) is 30%. `Cn1cc(C(=O)Nc2ccccc2C2CC2C2CC2)c(C(F)F)n1` (stereo not drawn) [sedaxane]: the “Efficacy in % found” value in assay [2] (Table 1, 40 ppm a.i.) turned out to be 37%. As to `CC(C)(C)C(O)(CCc1ccc(Cl)cc1)Cn1cncn1` (stereo not drawn) [tebuconazole], the pest or weed control at 2 ppm in assay [1] (Podosphaera fuliginea, 168 h, Table 7, 2 ppm a.i., read-out: Efficacy in % found) came to 13%. Regarding `CC(C)(C)C(O)C(Oc1ccc(Cl)cc1)n1cncn1` (stereo not drawn) [triadimenol], in assay [1] (setting [5]), the pest or weed control at 1 ppm turned out to be 38%.

For `CON=C(C(=O)OC)c1ccccc1CON=C(C)c1cccc(C(F)(F)F)c1` [trifloxystrobin], in assay [1] (Podosphaera fuliginea, 168 h, Table 7, 2.5 ppm a.i., read-out: Efficacy in % found), the pest or weed control at 2.5 ppm came to 58%. Turning to `CCC(C)(NC(=O)c1cc(Cl)c(C)c(Cl)c1)C(=O)CCl` (stereo not drawn) [zoxamide], in assay [2] (setting [6]), the pest or weed control at 0.4 ppm was 16%. On to mancozeb, for which the “Efficacy in % found” value in assay [2] (Table 1, 20 ppm a.i.) was 33%. As to metiram, the “Efficacy in % found” value in assay [2] (Table 4, 100 ppm a.i.) amounted to 26%.

On to propineb, for which the “Efficacy in % found” value in assay [2] (Table 2, 6.25 ppm a.i.) is listed as 63%.
